biological target: human DGKα (Homo sapiens, UniProt P23743); test: biochemical
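Further: recombinant enzyme acting on 18:1 DAG micelles (with POPS and octylglucoside) plus 200 µM ATP, 1 h at 25 °C, ADP generated read out by ADP-Glo luminescence.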

human DGKα, sequence (P23743 whole entry): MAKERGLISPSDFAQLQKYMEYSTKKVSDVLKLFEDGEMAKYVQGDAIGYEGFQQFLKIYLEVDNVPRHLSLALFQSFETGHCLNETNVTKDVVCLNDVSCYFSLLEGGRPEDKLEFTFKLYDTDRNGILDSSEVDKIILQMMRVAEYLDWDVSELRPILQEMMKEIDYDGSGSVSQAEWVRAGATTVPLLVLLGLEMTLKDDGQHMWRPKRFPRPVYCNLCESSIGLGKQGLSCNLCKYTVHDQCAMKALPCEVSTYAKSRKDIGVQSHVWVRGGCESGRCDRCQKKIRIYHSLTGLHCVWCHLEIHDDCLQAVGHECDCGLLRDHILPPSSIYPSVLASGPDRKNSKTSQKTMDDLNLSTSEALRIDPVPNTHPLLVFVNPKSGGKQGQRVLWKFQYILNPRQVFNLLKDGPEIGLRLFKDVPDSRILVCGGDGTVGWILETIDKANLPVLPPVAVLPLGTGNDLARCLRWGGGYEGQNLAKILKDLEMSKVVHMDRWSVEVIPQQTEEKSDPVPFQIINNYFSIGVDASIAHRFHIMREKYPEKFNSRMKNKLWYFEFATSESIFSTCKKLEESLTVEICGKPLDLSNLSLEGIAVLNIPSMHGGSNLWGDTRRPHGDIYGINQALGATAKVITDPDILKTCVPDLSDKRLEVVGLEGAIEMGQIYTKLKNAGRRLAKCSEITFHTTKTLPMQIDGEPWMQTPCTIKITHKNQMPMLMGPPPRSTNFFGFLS

IC50 [µM] | Compound
0.0105 | CCC1(C#Cc2cccc3c2OCCCN3c2nc3nnn(C)c3c3cncc(F)c23)COC1 [Example 1, 9-((3-ethyloxetan-3-yl)ethynyl)-5-(6-fluoro-1-methyl-1H-[1,2,3]triazolo[4,5-c][2,6]naphthyridin-5-yl)-2,3,4,5-tetrahydrobenzo[b][1,4]oxazepine]
0.00273 | CCC1(C#Cc2cccc3c2COCCN3c2nc3nnn(C)c3c3cncc(F)c23)COC1 [Example 3, 6-((3-ethyloxetan-3-yl)ethynyl)-1-(6-fluoro-1-methyl-1H-[1,2,3]triazolo[4,5-c][2,6]naphthyridin-5-yl)-1,2,3,5-tetrahydrobenzo[e][1,4]oxazepine]
0.00226 | Cn1nnc2nc(N3CCOCc4c(C#CC5(C)COC5)cccc43)c3c(F)cncc3c21 [Example 4, 1-(6-fluoro-1-methyl-1H-[1,2,3]triazolo[4,5-c][2,6]naphthyridin-5-yl)-6-((3-methyloxetan-3-yl)ethynyl)-1,2,3,5-tetrahydrobenzo[e][1,4]oxazepine]
0.0208 | Cn1nnc2nc(N3CCCc4c(C#CC(C)(C)C#N)cccc43)c3c(F)cncc3c21 [Example 5, 4-(1-(6-fluoro-1-methyl-1H-[1,2,3]triazolo[4,5-c][2,6]naphthyridin-5-yl)-1,2,3,4-tetrahydroquinolin-5-yl)-2,2-dimethylbut-3-ynenitrile]
0.0115 | Cn1nnc2nc(N3CCCOc4c(C#CC5(C)CC5)cccc43)c3c(F)cncc3c21 [Example 7, 5-(6-fluoro-1-methyl-1H-[1,2,3]triazolo[4,5-c][2,6]naphthyridin-5-yl)-9-((1-methylcyclopropyl)ethynyl)-2,3,4,5-tetrahydrobenzo[b][1,4]oxazepine]
0.0102 | Cn1nnc2nc(N3CCCOc4c(C#CC(C)(C)C#N)cccc43)c3c(F)cncc3c21 [Example 8, 4-(5-(6-fluoro-1-methyl-1H-[1,2,3]triazolo[4,5-c][2,6]naphthyridin-5-yl)-2,3,4,5-tetrahydrobenzo[b][1,4]oxazepin-9-yl)-2,2-dimethylbut-3-ynenitrile]
0.013 | Cn1nnc2nc(N3CCCOc4c(C#CC(C)(C)O)cccc43)c3c(F)cncc3c21 [Example 10, 4-(5-(6-fluoro-1-methyl-1H-[1,2,3]triazolo[4,5-c][2,6]naphthyridin-5-yl)-2,3,4,5-tetrahydrobenzo[b][1,4]oxazepin-9-yl)-2-methylbut-3-yn-2-ol]
0.00859 | Cn1nnc2nc(N3CCOCc4c(C#CC5(C)CC5)cccc43)c3c(F)cncc3c21 [Example 11, 1-(6-fluoro-1-methyl-1H-[1,2,3]triazolo[4,5-c][2,6]naphthyridin-5-yl)-6-((1-methylcyclopropyl)ethynyl)-1,2,3,5-tetrahydrobenzo[e][1,4]oxazepine]
0.00542 | Cn1nnc2nc(N3CCCCc4c(C#CC(C)(C)O)cccc43)c3c(F)cncc3c21 [Example 15, 4-(1-(6-fluoro-1-methyl-1H-[1,2,3]triazolo[4,5-c][2,6]naphthyridin-5-yl)-2,3,4,5-tetrahydro-1H-benzo[b]azepin-6-yl)-2-methylbut-3-yn-2-ol]
0.0422 | Cn1nnc2nc(N(CC(F)F)c3cc(F)cc(C#CC(C)(C)C#N)c3)c3c(F)cncc3c21 [Example 16, 4-(3-((2,2-difluoroethyl)(6-fluoro-1-methyl-1H-[1,2,3]triazolo[4,5-c][2,6]naphthyridin-5-yl)amino)-5-fluorophenyl)-2,2-dimethylbut-3-ynenitrile]
0.0618 | Cn1nnc2nc(N(CC(F)F)c3ccnc(C#CC4(C)CC4)c3)c3c(F)c(F)ccc3c21 [Example 17, N-(2,2-difluoroethyl)-6,7-difluoro-1-methyl-N-(2-((1-methylcyclopropyl)ethynyl)pyridin-4-yl)-1H-[1,2,3]triazolo[4,5-c]isoquinolin-5-amine]
0.0314 | Cn1nnc2nc(N(CC(F)F)c3ccnc(C#CC4(C)CC4)c3)c3c(F)cncc3c21 [Example 19, N-(2,2-difluoroethyl)-6-fluoro-1-methyl-N-(2-((1-methylcyclopropyl)ethynyl)pyridin-4-yl)-1H-[1,2,3]triazolo[4,5-c][2,6]naphthyridin-5-amine]
0.109 | Cn1nnc2nc(N(CC(F)F)c3ccnc(C#CC(C)(C)C#N)c3)c3c(F)cncc3c21 [Example 20, 4-(4-((2,2-difluoroethyl)(6-fluoro-1-methyl-1H-[1,2,3]triazolo[4,5-c][2,6]naphthyridin-5-yl)amino)pyridin-2-yl)-2,2-dimethylbut-3-ynenitrile]
0.124 | Cn1nnc2nc(N3CCCc4c(C#CC5(C)CC5)cncc43)c3cc(F)ccc3c21 [Example 22, 7-fluoro-1-methyl-5-(5-((1-methylcyclopropyl)ethynyl)-3,4-dihydro-1,7-naphthyridin-1(2H)-yl)-1H-[1,2,3]triazolo[4,5-c]isoquinoline]
0.0545 | Cn1nnc2nc(N(CC(F)F)c3ccnc(C#CC4(C)CC4)c3)c3c(F)cccc3c21 [Example 24, N-(2,2-difluoroethyl)-6-fluoro-1-methyl-N-(2-((1-methylcyclopropyl)ethynyl)pyridin-4-yl)-1H-[1,2,3]triazolo[4,5-c]isoquinolin-5-amine]
0.0392 | Cn1nnc2nc(N(CC(F)F)c3ccnc(C#CC4(C)CC4)c3)c3cc(F)ccc3c21 [Example 25, N-(2,2-difluoroethyl)-7-fluoro-1-methyl-N-(2-((1-methylcyclopropyl)ethynyl)pyridin-4-yl)-1H-[1,2,3]triazolo[4,5-c]isoquinolin-5-amine]
0.143 | Cn1nnc2nc(N(CC(F)F)c3ccnc(C#CC(C)(C)O)c3)c3cc(F)ccc3c21 [Example 27, 4-(4-((2,2-difluoroethyl)(7-fluoro-1-methyl-1H-[1,2,3]triazolo[4,5-c]isoquinolin-5-yl)amino)pyridin-2-yl)-2-methylbut-3-yn-2-ol]
0.16 | Cn1nnc2nc(N3CCCc4c(C#CC(C)(C)C#N)cncc43)c3c(F)cccc3c21 [Example 30, 4-(1-(6-fluoro-1-methyl-1H-[1,2,3]triazolo[4,5-c]isoquinolin-5-yl)-1,2,3,4-tetrahydro-1,7-naphthyridin-5-yl)-2,2-dimethylbut-3-ynenitrile]
0.093 | Cn1nnc2nc(N3CCCc4c(C#CC(C)(C)O)cncc43)c3c(F)cncc3c21 [Example 32, 4-(1-(6-fluoro-1-methyl-1H-[1,2,3]triazolo[4,5-c][2,6]naphthyridin-5-yl)-1,2,3,4-tetrahydro-1,7-naphthyridin-5-yl)-2-methylbut-3-yn-2-ol]
0.0261 | Cn1nnc2nc(N(CC(F)F)c3cc(F)cc(C#CC(C)(C)O)c3)c3cc(F)cnc3c21 [Example 34, 4-(3-((2,2-difluoroethyl)(7-fluoro-1-methyl-1H-[1,2,3]triazolo[4,5-h][1,6]naphthyridin-5-yl)amino)-5-fluorophenyl)-2-methylbut-3-yn-2-ol]
0.0507 | Cn1nnc2nc(N3CCCc4c(C#CC(C)(C)C#N)cccc43)c3cc(F)cnc3c21 [Example 35, 4-(1-(7-fluoro-1-methyl-1H-[1,2,3]triazolo[4,5-h][1,6]naphthyridin-5-yl)-1,2,3,4-tetrahydroquinolin-5-yl)-2,2-dimethylbut-3-ynenitrile]
0.0516 | Cn1nnc2nc(N(CC(F)F)c3cc(F)cc(C#CC4(C(F)(F)F)CC4)c3)c3c(F)cncc3c21 [Example 38, N-(2,2-difluoroethyl)-6-fluoro-N-(3-fluoro-5-((1-(trifluoromethyl)cyclopropyl)ethynyl)phenyl)-1-methyl-1H-[1,2,3]triazolo[4,5-c][2,6]naphthyridin-5-amine]
0.0419 | Cn1nnc2nc(N3CCCc4c(C#CC5(C(F)(F)F)CC5)cccc43)c3c(F)cncc3c21 [Example 40, 6-fluoro-1-methyl-5-(5-((1-(trifluoromethyl)cyclopropyl)ethynyl)-3,4-dihydroquinolin-1(2H)-yl)-1H-[1,2,3]triazolo[4,5-c][2,6]naphthyridine]
0.0341 | Cn1nnc2nc(N(CC(F)F)c3cc(F)cc(C#CC(C)(C)O)c3)c3cc(F)ccc3c21 [Example 43, 4-(3-((2,2-difluoroethyl)(7-fluoro-1-methyl-1H-[1,2,3]triazolo[4,5-c]isoquinolin-5-yl)amino)-5-fluorophenyl)-2-methylbut-3-yn-2-ol]
0.0194 | Cn1nnc2nc(N3CCCc4c(C#CC(C)(C)O)cccc43)c3c(F)cccc3c21 [Example 45, 4-(1-(6-fluoro-1-methyl-1H-[1,2,3]triazolo[4,5-c]isoquinolin-5-yl)-1,2,3,4-tetrahydroquinolin-5-yl)-2-methylbut-3-yn-2-ol]
0.0649 | Cn1nnc2nc(N(CC(F)F)c3cc(F)cc(C#CC4(C(F)(F)F)CC4)c3)c3c(F)cccc3c21 [Example 48, N-(2,2-difluoroethyl)-6-fluoro-N-(3-fluoro-5-((1-(trifluoromethyl)cyclopropyl)ethynyl)phenyl)-1-methyl-1H-[1,2,3]triazolo[4,5-c]isoquinolin-5-amine]
0.0232 | Cn1nnc2nc(N3CCCc4c(C#CC5(C(F)(F)F)CC5)cccc43)c3ccc(Cl)cc3c21 [Example 50, 8-chloro-1-methyl-5-(5-((1-(trifluoromethyl)cyclopropyl)ethynyl)-3,4-dihydroquinolin-1(2H)-yl)-1H-[1,2,3]triazolo[4,5-c]isoquinoline]
0.0225 | Cn1nnc2nc(N(CC(F)F)c3cc(F)cc(C#CC(C)(C)O)c3)c3ccc(Cl)cc3c21 [Example 51, 4-(3-((8-chloro-1-methyl-1H-[1,2,3]triazolo[4,5-c]isoquinolin-5-yl)(2,2-difluoroethyl)amino)-5-fluorophenyl)-2-methylbut-3-yn-2-ol]

Source: patent publication US11999733B2, “Diacylglycerol kinase modulating compounds” (Gilead Sciences, Inc., priority 2021, dated 2024)
